The test system of assay [1] is HCV genotype 1a (H77 strain) replicon in HUH-7 cells. The experiment in a line: HCV replicon luciferase reporter assay, genotype 1a. Type of assay: cell-based. The following applies: Hepatitis C virus, Huh-7, 72 h, HCV genotype 1a replicon luciferase, 3 days incubation, read-out: LE_1a (EC50, range). The essentials:
(§1)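 Replicon inhibition for both genotypes was measured as Renilla luciferase signal (EnduRen, 7.5 μM final, 2 h) after 3-day, 37° C exposure of replicon-bearing HUH-7 cells in 4% FCS DMEM, 0.5% DMSO. The 1b construct carries S1179I; the 1a H77 construct carries P1496L and S2204I. Twenty-point, 3-fold dilutions were fitted four-parametrically for EC50, and CC50 was taken from multiplexed Cell Titer-Blue.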
A general note: Replicon systems follow genome replication, usually without infectious particles.

Assay [2] deals with HCV genotype 1b (Con1) replicon in HUH-7 cells. In words: HCV replicon luciferase reporter assay, genotype 1b. Type of assay: cell-based. The following applies: Hepatitis C virus, Huh-7, 72 h, HCV genotype 1b replicon luciferase, 3 days incubation, read-out: LE_1b (EC50, range). In short, it runs like this: as §1

Molecules are shown by their SMILES. pEC50: −log10 of the molar value.

As usually defined, the pEC50 is the EC50 on a negative log10 scale, so that one unit is a factor of ten.

In the case of `COc1cnc(O[C@@H]2C[C@H]3C(=O)N[C@]4(C(=O)NS(=O)(=O)C5(CF)CC5)C[C@H]4CCCC[C@@H](C)C[C@@H](C)[C@H](NC(=O)OC(C)(C)C(F)(F)F)C(=O)N3C2)c2ccccc12` [Compound 5117, 1,1,1-trifluoro-2-methylpropan-2-yl((2R,6S,7R,9R,13aR,14aR,16aS)-14a-(((1-(fluoromethyl)cyclopropyl)sulfonyl)carbamoyl)-2-((4-methoxyisoquinolin-1-yl)oxy)-7,9-dimethyl-5,16-dioxooctadecahydrocyclopropa[e]pyrrolo[1,2-a][1,4]diazacyclopentadecin-6-yl)carbamate], the pEC50 in assay [1] and in assay [2] was above 8.26 throughout.
In the case of `COc1cnc(O[C@@H]2C[C@H]3C(=O)N[C@]4(C(=O)NS(=O)(=O)C5(CF)CC5)C[C@H]4CCCC[C@H](C)C[C@@H](C)[C@H](NC(=O)OC(C)(C)C(C)(F)F)C(=O)N3C2)c2ccccc12` [Compound 5118, 3,3-difluoro-2-methylbutan-2-yl ((2R,6S,7R,9S,13 aR,14aR,16aS)-14a-(((1-(fluoromethyl)cyclopropyl)sulfonyl)carbamoyl)-2-((4-methoxyisoquinolin-1-yl)oxy)-7,9-dimethyl-5,16-dioxooctadecahydrocyclopropa[e]pyrrolo[1,2-a][1,4]diazacyclopentadecin-6-yl)carbamate], the pEC50 in assay [1] and in assay [2] was 6.99 to 8.32 throughout.
For `COc1cnc(O[C@@H]2C[C@H]3C(=O)N[C@]4(C(=O)NS(=O)(=O)C5(CF)CC5)C[C@H]4CCCC[C@@H](C)C[C@@H](C)[C@H](NC(=O)OC(C)(C)C(C)(F)F)C(=O)N3C2)c2ccccc12` [Compound 5119, 3,3-difluoro-2-methylbutan-2-yl ((2R,6S,7R,9R,13 aR,14aR,16aS)-14a-(((1-(fluoromethyl)cyclopropyl)sulfonyl)carbamoyl)-2-((4-methoxyisoquinolin-1-yl)oxy)-7,9-dimethyl-5,16-dioxooctadecahydrocyclopropa[e]pyrrolo[1,2-a][1,4]diazacyclopentadecin-6-yl)carbamate], the pEC50 in assay [1] and in assay [2] was above 8.26 each time.
As to `COc1cnc(O[C@@H]2C[C@H]3C(=O)N[C@]4(C(=O)NS(=O)(=O)C5(CF)CC5)C[C@H]4CCCC[C@@H](C)C[C@@H](C)[C@H](NC(=O)NC(C)(C)C)C(=O)N3C2)c2ccccc12` [Compound 5120, (2R,6S,7R,9R,13aR,14aR,16aS)-6-(3-(tert-butyl)ureido)-N-((1-(fluoromethyl)cyclopropyl)sulfonyl)-2-((4-methoxyisoquinolin-1-yl)oxy)-7,9-dimethyl-5,16-dioxooctadecahydrocyclopropa[e]pyrrolo[1,2-a][1,4]diazacyclopentadecine-14a-carboxamide], the pEC50 in assay [1] and in assay [2] was above 8.26 throughout.
With `C[C@@H]1CC/C=C\[C@@H]2C[C@@]2(C(=O)NS(=O)(=O)C2(C)CC2)NC(=O)[C@@H]2C[C@@H](Oc3nccc4c(N5CCOCC5)cccc34)CN2C(=O)[C@@H](NC(=O)OC(C)(C)C)[C@H](C)C1` [Compound 5122, tert-butyl ((2R,6S,7R,9R,13aS,14aR,16aS,Z)-7,9-dimethyl-14a-(((1-methylcyclopropyl)sulfonyl)carbamoyl)-2-((5-morpholinoisoquinolin-1-yl)oxy)-5,16-dioxo-1,2,3,5,6,7,8,9,10,11,13a,14,14a,15,16,16a-hexadecahydrocyclopropa[e]pyrrolo[1,2-a][1,4]diazacyclopentadecin-6-yl)carbamate], the pEC50 in assay [1] and in assay [2] was above 8.26 throughout.
On to `CCOc1ccc2c(O[C@@H]3C[C@H]4C(=O)N[C@]5(C(=O)NS(=O)(=O)C6CC6)C[C@H]5/C=C\CC[C@H](C)C[C@@H](C)[C@H](NC(=O)OC(C)(C)C)C(=O)N4C3)nccc2c1` [Compound 5127, tert-butyl ((2R,6S,7R,9S,13aS,14aR,16aS,Z)-14a-((cyclopropylsulfonyl)carbamoyl)-2-((6-ethoxyisoquinoline-1-yl)oxy)-7,9-dimethyl-5,16-dioxo-1,2,3,5,6,7,8,9,10,11,13a,14,14a,15,16,16a-hexadecahydrocyclopropa[e]pyrrolo[1,2-a][1,4]diazacyclopentadecin-6-yl)carbamate], for which the pEC50 in assay [1] and in assay [2] was above 8.26 throughout.
`CCOc1ccc2c(O[C@@H]3C[C@H]4C(=O)N[C@]5(C(=O)NS(=O)(=O)C6CC6)C[C@H]5/C=C\CC[C@@H](C)C[C@@H](C)[C@H](NC(=O)OC(C)(C)C)C(=O)N4C3)nccc2c1` [Compound 5128, tert-butyl ((2R,6S,7R,9R,13aS,14aR,16aS,Z)-14a-((cyclopropylsulfonyl)carbamoyl)-2-((6-ethoxyisoquinolin-1-yl)oxy)-7,9-dimethyl-5,16-dioxo-1,2,3,5,6,7,8,9,10,11,13a,14,14a,15,16,16a-hexadecahydrocyclopropa[e]pyrrolo[1,2-a][1,4]diazacyclopentadecin-6-yl)carbamate]: the pEC50 in assay [1] and in assay [2] was above 8.26 in each case.
Regarding `CCOc1ccc2c(O[C@@H]3C[C@H]4C(=O)N[C@]5(C(=O)NS(=O)(=O)C6(C)CC6)C[C@H]5/C=C\CC[C@H](C)C[C@@H](C)[C@H](NC(=O)OC(C)(C)C)C(=O)N4C3)nccc2c1` [Compound 5133, tert-butyl ((2R,6S,7R,9S,13aS,14aR,16aS,Z)-2-((6-ethoxyisoquinolin-1-yl)oxy)-7,9-dimethyl-14a-(((1-methylcyclopropyl)sulfonyl)carbamoyl)-5,16-dioxo-1,2,3,5,6,7,8,9,10,11,13a,14,14a,15,16,16a-hexadecahydrocyclopropa[e]pyrrolo[1,2-a][1,4]diazacyclopentadecin-6-yl)carbamate], the pEC50 in assay [1] is 6.99 to 8.32; in assay [2], above 8.26.
The corresponding values for `CCOc1ccc2c(O[C@@H]3C[C@H]4C(=O)N[C@]5(C(=O)NS(=O)(=O)C6(C)CC6)C[C@H]5/C=C\CC[C@@H](C)C[C@@H](C)[C@H](NC(=O)OC(C)(C)C)C(=O)N4C3)nccc2c1` [Compound 5134, tert-butyl ((2R,6S,7R,9R,13aS,14aR,16aS,Z)-2-((6-ethoxyisoquinolin-1-yl)oxy)-7,9-dimethyl-14a-(((1-methylcyclopropyl)sulfonyl)carbamoyl)-5,16-dioxo-1,2,3,5,6,7,8,9,10,11,13a,14,14a,15,16,16a-hexadecahydrocyclopropa[e]pyrrolo[1,2-a][1,4]diazacyclopentadecin-6-yl)carbamate] are above 8.26 and above 8.26.
For the compound `CCOc1ccc2c(O[C@@H]3C[C@H]4C(=O)N[C@]5(C(=O)NS(=O)(=O)C6(C)CC6)C[C@H]5/C=C\CC[C@H](C)C[C@@H](C)[C@H](NC(=O)OCC5(C)CC5)C(=O)N4C3)nccc2c1` [Compound 5139, (1-methylcyclopropyl)methyl ((2R,6S,7R,9S,13aS,14aR,16aS,Z)-2-((6-ethoxyisoquinolin-1-yl)oxy)-7,9-dimethyl-14a-(((1-methylcyclopropyl)sulfonyl)carbamoyl)-5,16-dioxo-1,2,3,5,6,7,8,9,10,11,13a,14,14a,15,16,16a-hexadecahydrocyclopropa[e]pyrrolo[1,2-a][1,4]diazacyclopentadecin-6-yl)carbamate], the pEC50 in assay [1] is 6.99 to 8.32; in assay [2], above 8.26.
The corresponding values for `CCOc1ccc2c(O[C@@H]3C[C@H]4C(=O)N[C@]5(C(=O)NS(=O)(=O)C6(C)CC6)C[C@H]5/C=C\CC[C@@H](C)C[C@@H](C)[C@H](NC(=O)OCC5(C)CC5)C(=O)N4C3)nccc2c1` [Compound 5140, (1-methylcyclopropyl)methyl ((2R,6S,7R,9R,13aS,14aR,16aS,Z)-2-((6-ethoxyisoquinolin-1-yl)oxy)-7,9-dimethyl-14a-(((1-methylcyclopropyl)sulfonyl)carbamoyl)-5,16-dioxo-1,2,3,5,6,7,8,9,10,11,13a,14,14a,15,16,16a-hexadecahydrocyclopropa[e]pyrrolo[1,2-a][1,4]diazacyclopentadecin-6-yl)carbamate] are above 8.26 and above 8.26.
For `CCOc1ccc2c(O[C@@H]3C[C@H]4C(=O)N[C@]5(C(=O)NS(=O)(=O)C6(C)CC6)C[C@H]5/C=C\CC[C@H](C)C[C@@H](C)[C@H](NC(=O)O[C@H](C)C(F)(F)F)C(=O)N4C3)nccc2c1` [Compound 5141, (R)-1,1,1-trifluoropropan-2-yl ((2R,6S,7R,9S,13aS,14aR,16aS,Z)-2-((6-ethoxyisoquinolin-1-yl)oxy)-7,9-dimethyl-14a-(((1-methylcyclopropyl)sulfonyl)carbamoyl)-5,16-dioxo-1,2,3,5,6,7,8,9,10,11,13a,14,14a,15,16,16a-hexadecahydrocyclopropa[e]pyrrolo[1,2-a][1,4]diazacyclopentadecin-6-yl)carbamate], the pEC50 is 6.99 to 8.32 in assay [1] and above 8.26 in assay [2].
`CCOc1ccc2c(O[C@@H]3C[C@H]4C(=O)N[C@]5(C(=O)NS(=O)(=O)C6(C)CC6)C[C@H]5/C=C\CC[C@@H](C)C[C@@H](C)[C@H](NC(=O)O[C@H](C)C(F)(F)F)C(=O)N4C3)nccc2c1` [Compound 5142, (R)-1,1,1-trifluoropropan-2-yl ((2R,6S,7R,9R,13aS,14aR,16aS,Z)-2-((6-ethoxyisoquinolin-1-yl)oxy)-7,9-dimethyl-14a-(((1-methylcyclopropyl)sulfonyl)carbamoyl)-5,16-dioxo-1,2,3,5,6,7,8,9,10,11,13a,14,14a,15,16,16a-hexadecahydrocyclopropa[e]pyrrolo[1,2-a][1,4]diazacyclopentadecin-6-yl)carbamate]: the pEC50 in assay [1] and in assay [2] was above 8.26 in each case.

The values above are taken from patent publication US9499550B2 (BRISTOL-MYERS SQUIBB COMPANY, priority 2012, dated 2016).
